# From US11357651B2, “Stent assembly and method of preparing the stent assembly” (Nanyang Technological University, priority 2015, dated 2022)
# Tested on: human bladder stroma fibroblasts
# Test: Cell work: fibroblast viability (prestoblue) after mitomycin C treatment
# Type: cell-based
# Conditions: 3 days of drug treatment
# Description: FIGS. 13(A) and (B) are graphs showing (A) relative cell count vs MMC concentrations (μg/mL), and (B) dose-response curve.
# In each well of a 96 well cell culture plate, 3000 human bladder stroma fibroblasts cells are seeded. After one day of seeding, different concentrations of mitomycin C dissolved in cell media (200 μL) were added to the well. After 3 days of drug treatment, the drug media was removed and the well added with 70 μL of a cell viability reagent, prestoblue, in the ratio of 9:1 (cell media: prestoblue).
structure (smiles),measurement,value
"CO[C@@]12[C@H](COC(N)=O)C3=C(C(=O)C(C)=C(N)C3=O)N1C[C@@H]1N[C@@H]12 [MMC, mitomycin C]",GI50,about 0.115 μg/mL
same,minimum concentration of MMC required to cause death of / inhibit proliferation of fibroblasts,0.01 µg/mL
